Test results taken from patent US9603854B2, “Indolizine compounds, a process for their preparation and pharmaceutical compositions containing them” (LES LABORATOIRES SERVIER, priority 2012, dated 2017).
Counter-ions that a name gives are not always drawn.

Legend:
[1] = system: RS4;11 leukaemia tumour line; assay: In vitro cytotoxicity (Microculture Tetrazolium Assay, 48 hours); assay type: cell-based; conditions: cytotoxicity for RS4;11 cells, MTT
Description: The cytotoxicity studies were carried out on the RS4;11 leukaemia tumour line.
The cells are distributed onto microplates and exposed to the test compounds for 48 hours.

[2] = target: Bcl-2 protein (Homo sapiens (Human), UniProt P10415); assay: Inhibition of Bcl-2 by the fluorescence polarisation technique; assay type: binding; conditions: Bcl-2 inhibition, fluorescence polarisation test; read-out: IC50 (nM) Bcl-2 FP
Bcl-2 protein, sequence (P10415 whole entry): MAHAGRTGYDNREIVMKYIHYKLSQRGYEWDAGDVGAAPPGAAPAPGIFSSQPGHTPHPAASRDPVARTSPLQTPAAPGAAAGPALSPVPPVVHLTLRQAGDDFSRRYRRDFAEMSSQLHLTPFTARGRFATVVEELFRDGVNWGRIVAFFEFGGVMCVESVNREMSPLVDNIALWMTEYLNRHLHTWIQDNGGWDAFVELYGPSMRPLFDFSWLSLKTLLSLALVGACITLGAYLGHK
Description: The fluorescence polarisation tests were carried out on microplates (384 wells). […] After incubation for 2 hours, the fluorescence polarisation is measured.

[3] = system: caspase 3; assay: Induction of caspase activity in vivo (DEVDase activity in tumour lysates, RS4;11 xenograft); design: species or system mice (SCID strain); conditions: oral treatment 50 mg/kg, RS4;11 xenograft in SCID mice, 16 hours after treatment; for fold induction at 50 mg/kg: Mus musculus, read-out: Activation factor (versus control), DEVDase activity in the tumours
Description: The ability of the compounds of the invention to activate caspase 3 is evaluated in a xenograft model of RS4;11 leukaemia cells.
1×10^7 RS4;11 cells are grafted sub-cutaneously into immunosuppressed mice (SCID strain). 25 to 30 days after the graft, the animals are treated orally with the various compounds. Sixteen hours after treatment, the tumour masses are recovered and lysed, and the caspase 3 activity is measured in the tumour lysates.
This enzymatic measurement is carried out by assaying the appearance of a fluorigenic cleavage product (DEVDase activity, Promega). It is expressed in the form of an activation factor corresponding to the ratio between the two caspase activities: the activity for the treated mice divided by the activity for the control mice.

Structure (SMILES)	IC50 [1] [nM]	IC50 [2] [nM]	IC50 ([1]; Homo sapiens) [nM]	further results
Cn1ccc2cc(N(C(=O)c3cc(-c4cc5c(cc4C(=O)N4Cc6ccccc6C[C@H]4CN4CCOCC4)OCO5)n4c3CN(C(=O)OC(C)(C)C)CC4)c3ccc(O)cc3)ccc21 [Example 72]	270	220	–	–
O=C(c1cc(-c2cc3c(cc2C(=O)N2Cc4ccccc4C[C@H]2CN2CCOCC2)OCO3)n2ccccc12)N(c1ccccc1)c1ccc(O)cc1 [Example 58, N-(4-Hydroxyphenyl)-3-{6-[((3S)-3-(4-morpholinylmethyl)-3,4-dihydro-2(1H)-isoquinolinyl)carbonyl]-1,3-benzodioxol-5-yl}-N-phenyl-1-indolizine carboxamide hydrochloride]	–	22	40.1	fold induction at 50 mg/kg [3]: 23.3
CCOc1ccc(C(=O)N2Cc3ccccc3C[C@H]2CN2CCOCC2)c(-c2cc(C(=O)N(c3ccc(O)cc3)c3ccc4c(ccn4C)c3)c3n2CCCC3)c1 [Example 36, 3-{5-Ethoxy-2-[((3S)-3-(4-morpholinylmethyl)-3,4-dihydro-2(1H)-isoquinolinyl)carbonyl]phenyl}-N-(4-hydroxyphenyl)-N-(1-methyl-1H-indol-5-yl)-5,6,7,8-tetrahydro-1-indolizine carboxamide hydrochloride]	–	–	135	–
CN1CCc2cc(N(C(=O)c3cc(-c4cc(Cl)ccc4C(=O)N4Cc5ccccc5C[C@H]4CN4CCOCC4)c4n3CCCC4)c3ccc(O)cc3)ccc21 [Example 43, 1-{5-Chloro-2-[((3S)-3-(4-morpholinylmethyl)-3,4-dihydro-2(1H)-isoquinolinyl)carbonyl]phenyl}-N-(4-hydroxyphenyl)-N-(1-methyl-2,3-dihydro-1H-indol-5-yl)-5,6,7,8-tetrahydro-3-indolizine carboxamide hydrochloride]	–	110	–	–
O=C(c1cc(-c2cc3c(cc2C(=O)N2Cc4ccccc4C[C@H]2CN2CCOCC2)OCO3)n2c1CCCC2)N(c1ccc(O)cc1)c1ccc(Cl)cc1 [Example 3, N-(4-Chlorophenyl)-N-(4-hydroxyphenyl)-3-{6-[((3S)-3-(4-morpholinylmethyl)-3,4-dihydro-2(1H)-isoquinolinyl)carbonyl]-1,3-benzodioxol-5-yl}-5,6,7,8-tetrahydro-1-indolizine carboxamide hydrochloride]	–	20	44.7	fold induction at 50 mg/kg [3]: 5.7
Cn1ccc2ccc(N(C(=O)c3cc(-c4cc(Cl)ccc4C(=O)N4Cc5ccccc5C[C@H]4CN4CCOCC4)n4c3CCCCC4)c3ccc(O)cc3)cc21 [Example 83, 3-{5-Chloro-2-[((3S)-3-(4-morpholinylmethyl)-3,4-dihydro-2(1H)-isoquinolinyl)carhonyl]phenyl}-N-(4-hydroxyphenyl)-N-(1-methyl-1H-indol-6-yl)-6,7,8,9-tetrahydro-5H-pyrrolo[1,2-a]azepine-1-carboxamide hydrochloride]	41.2	–	–	–
O=C(c1cc(-c2cc3c(cc2C(=O)N2Cc4ccccc4C[C@H]2CN2CCOCC2)OCO3)n2c1CCCC2)N(c1ccc(O)cc1)c1ccc(O)cc1 [Example 6, N,N-bis(4-Hydroxyphenyl)-3-{6-[((3S)-3-(4-morpholinylmethyl)-3,4-dihydro-2(1H)-isoquinolinyl)carbonyl]-1,3-benzodioxol-5-yl}-5,6,7,8-tetrahydra-1-indolizine carboxamide hydrochloride]	30	–	–	–
Cn1ccc2cc(N(C(=O)c3cc(-c4cc5c(cc4C(=O)N4Cc6ccccc6C[C@H]4CN4CCOCC4)OCO5)n4c3CCC4)c3ccc(O)cc3)ccc21 [Example 96, N-(4-Hydroxyphenyl)-N-(1-meth-1H-indol-5-yl)-5-(6-{[(3S)-3-(morpholin-4-ylmethyl)-3,4-dihydroisoquinolin-2(1H)-yl]carbonyl}-1,3-benzodioxol-5-yl)-2,3-dihydro-1H-pyrrolizine-7-carboxamide hydrochloride]	58.8	–	–	–
Cl.Cn1ccc2cc(N(C(=O)c3cc(-c4cc(Cl)ccc4C(=O)N4Cc5ccccc5C[C@H]4CN4CCOCC4)n4ccccc34)c3ccc(O)cc3)ccc21 [Example 67, 3-{5-Chloro-2-[((3S)-3-(4-morpholinylmethyl)-3,4-dihydro-2(1H)-isoquinolinyl)carhonyl]phenyl}-N-(4-hydroxyphenyl)-N-(1-methyl-1H-indol-5-yl)-1-indolizine carboxamide hydrochloride]	17.7	–	–	Activation factor (versus control), DEVDase activity in the tumours [3]: 18.9 (50 mg/kg)
